Laboratory results from PubChem BioAssay (NCI).
Values joined by “and” are separate entries in the source; they are usually repeats but may differ in a detail not shown here. Identical values can stand only once.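 Following 48 hours of exposure in 96-well plates, responses at five concentrations were used to interpolate endpoints linearly. GI50 = concentration required for 50% inhibition of growth. Definition used: TGI = concentration required for complete inhibition of growth.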

Experiments:
Assay in all cases: NCI tumour cell line growth inhibition, 48 h
DMS 114 small cell lung = test system: DMS 114 small cell lung
DMS 273 small cell lung = test system: DMS 273 small cell lung
HOP-18 NSCLC = test system: HOP-18 NSCLC
M19-MEL melanoma = test system: M19-MEL melanoma
RXF-631 renal = test system: RXF-631 renal
XF 498 CNS = test system: XF 498 CNS
BT-549 breast = test system: BT-549 breast
MDA-N = test system: MDA-N
P388/ADR leukemia = test system: P388/ADR leukemia
SN12K1 renal = test system: SN12K1 renal
T-47D breast = test system: T-47D breast

| SMILES | TGI (DMS 114 small cell lung) | TGI (DMS 273 small cell lung) | TGI (HOP-18 NSCLC) | TGI (M19-MEL melanoma) | TGI (RXF-631 renal) | TGI (XF 498 CNS) | TGI (BT-549 breast) | GI50 (DMS 114 small cell lung) | GI50 (DMS 273 small cell lung) | GI50 (HOP-18 NSCLC) | GI50 (M19-MEL melanoma) | TGI (MDA-N) | TGI (P388/ADR leukemia) | TGI (SN12K1 renal) | TGI (T-47D breast) | GI50 (XF 498 CNS) |
| --- | --- | --- | --- | --- | --- | --- | --- | --- | --- | --- | --- | --- | --- | --- | --- | --- |
| c1ccc2c(c1)cc(C1NCCc3[nH]cnc31)c1ccccc12 (stereo unspecified) | > 64.3 µM | 87.9 µM | > 100 µM | > 59.5 µM | > 100 µM | 79 µM | – | – | – | – | – | – | – | – | – | – |
| COc1cc(C[C@H]2c3cc(OC)c(OC)cc3CCN2C)c(Oc2cc3c(cc2OC)-c2c(OC)c(OC)cc4c2[C@H](C3)N(C)CC4)cc1OC | 18 µM and 14.4 µM | 27.6 µM and 28.1 µM | 40.9 µM and 29.9 µM | 16.8 µM and 24.6 µM | 19.8 µM | 16.4 µM and 16.3 µM | 13.1 µM | 4 µM | 14.6 µM | 20.1 µM and 15.8 µM | 11.9 µM | 13.1 µM | 27.9 µM | 15.4 µM | 23.4 µM | 6.8 µM |
| CC(C)C1CC[C@@H](C)C[C@@]1(O)CC(N)=O (stereo partly specified) | > 100 µM | > 100 µM | > 100 µM | > 100 µM | > 100 µM | 0.856 µM | – | – | – | – | – | – | – | – | – | – |
| CC1CCC(NC(=O)N(CCCl)N=O)CC1 (stereo unspecified) | 40.4 µM and 87.3 µM | 82.3 µM and 74 µM | 62.8 µM | 98 µM | – | 43.5 µM and 81.2 µM | 57.2 µM | 19 µM | 26.6 µM | – | 53.1 µM | 90.1 µM | 56.8 µM | 67 µM | 88.1 µM | 16.4 µM |
| CCS(CC)(CC)CC1CCCC2=CCC(P(=O)(c3ccccc3)c3ccccc3)CC21 (stereo unspecified) | 24.8 µM | 26.4 µM | 40.3 µM | 36.5 µM | 31.5 µM | 17.4 µM | – | – | – | – | – | – | – | – | – | – |
| Oc1ccccc1/C=C/c1csnn1 | > 100 µM | > 100 µM | > 100 µM | > 100 µM | > 100 µM | > 100 µM | – | – | – | – | – | – | – | – | – | – |
| COc1cc(OC(=O)c2ccccc2)cc2c1C(=O)C=CC2=O | 30.2 µM | 40.5 µM | 41.5 µM | 25.9 µM | 41.5 µM | 31.4 µM | 29.8 µM | – | – | – | – | 18.8 µM | – | – | 4.73 µM | – |
| COc1ccc(Br)c(N/N=C2\CCCNC2=O)c1 | > 100 µM | > 100 µM | > 100 µM | > 100 µM | > 100 µM | > 100 µM | – | – | – | – | – | – | – | – | – | – |
| COC1CC(OS(=O)(=O)c2ccc([N+](=O)[O-])cc2)C(OC(=O)c2ccccc2)C(C)O1 (stereo unspecified) | – | > 100 µM | > 100 µM | > 100 µM | > 100 µM | > 100 µM | – | – | – | – | – | – | – | – | – | – |
| Cc1ccc(S(=O)(=O)OC2CSS(=O)CC2OS(=O)(=O)c2ccc(C)cc2)cc1 (stereo unspecified) | 32.2 µM | 35.3 µM | 37.6 µM | 30.5 µM | 30.4 µM | 26.6 µM | – | – | – | – | – | – | – | – | – | – |
| CCOC(=O)NC(=O)c1cn(CCOC(=O)CCCCCCCCC(=O)OCCn2cc(C(=O)NC(=O)OCC)c(=O)[nH]c2=O)c(=O)[nH]c1=O | > 100 µM | > 100 µM | > 100 µM | > 100 µM | > 100 µM | > 100 µM | – | – | – | – | – | – | – | – | – | – |
